Consider 29 molecules from PubChem BioAssay AID179 (DTP/NCI, 2004).

The subject of this test is CEM cells HIV-1 protection, formazan growth assay. Put plainly: NCI AIDS Antiviral Assay. The conditions noted are these: for IC50: measured here: growth of uninfected CEM cells. In a few lines: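 Protection of CEM cells against HIV-1 was scored from cell growth (soluble formazan) across five concentrations, with parallel uninfected cells. Lack of protection may reflect toxicity.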

Calls of active or inactive are those of the source.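 Rule for the calls: active = compounds giving half or more protection of infected cells from virus-caused growth loss, again on retest; inactive = the rest.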

As to `C=C(CN(C)C)c1ccccn1`, the EC50 was more than 200 µM and the IC50 was more than 200 µM.

As to `O=C(C(=Cn1c(=O)cc[nH]c1=S)C(=O)c1ccccc1)c1ccccc1`, the result was inactive.

With `O=C1c2c(O)cccc2C(C(=O)CCCCC(=O)C2c3cccc(O)c3C(=O)c3c(O)cccc32)c2cccc(O)c21`, the EC50 was more than 6.76 µM and the IC50 was more than 6.76 µM.

For the molecule `CC(C)CC(NC(=O)C(O)C(N)Cc1ccccc1)C(=O)O` (stereo not drawn), the EC50 is more than 17 µM and the concentration for half-maximal inhibition (IC50) is more than 17 µM.

Take `COc1cccc(C2SCC(=O)N2c2ccc(-c3ccc(-n4c(-c5ccccc5)nc5ccccc5c4=O)cc3)cc2)c1OC` (stereo not drawn): the EC50 was more than 200 µM and the half-maximal inhibitory concentration (IC50) amounted to 63.1 µM.

As for `O=C(/C=C/c1ccccc1)CCN1CCCCC1`, the EC50 was more than 200 µM and the IC50 was determined as 10.2 µM.

As to `c1ccc2sc(NCCSSCCNc3nc4ccccc4s3)nc2c1`, the EC50 was more than 200 µM and the IC50 turned out to be 23.4 µM.

On to `C/C=C/[C@@H]1[C@H]2C(=O)[C@]3(Cl)[C@@H](/C=C/C)[C@@H]3C(=O)[C@@]12Cl`, for which the outcome was inactive.

Take `O=C(CCc1ccc(O)c(O)c1)NCCc1cc(O)c(O)c(O)c1`: the EC50 is more than 200 µM and the IC50 was 5.01 µM.

For `COc1ccc(C(=O)CC(c2ccc(OC)c(OC)c2)c2c(O)c3ccccc3oc2=O)cc1OC` (stereo not drawn), the EC50 was more than 200 µM and the IC50 was determined as 117 µM.

On to `CC/C(C)=C1/CC(C)(C)N=C1C`, for which the EC50 was more than 200 µM and the 50% inhibitory concentration (IC50) came out at 89.1 µM.

With `CS(=O)(=O)N(CCC#N)c1ccc(C=O)cc1`, the EC50 was more than 102 µM and the IC50 is more than 102 µM.

As to `OC12c3ccccc3C1CCCCCCCCCC21OCCO1` (stereo not drawn), the result was inactive.

For `CCOC(=O)C1=C(C)N(Cc2ccccc2)C(C)=C(C(=O)OCC)C1c1ccccc1O`, the EC50 was more than 16.6 µM and the IC50 was more than 16.6 µM.

Regarding `CN1OC2OC(=O)OC2[C@H]1[C@H]1O[C@H](c2ccccc2)OC1(C)c1cc(OC(=O)c2ccccc2)ccc1OC(=O)c1ccccc1` (stereo partly drawn), the EC50 is more than 2.34 µM and the concentration for half-maximal inhibition (IC50) is more than 2.34 µM.

For `CCOC(=O)c1ccc(OCc2nc3cc(C(F)(F)F)ccc3nc2-c2ccccc2)cc1`, the EC50 was more than 200 µM and the concentration for half-maximal inhibition (IC50) was determined as 87.1 µM.

Turning to `O=c1[nH]c(Nc2cccc(CC(F)(F)F)c2)nc2nc[nH]c12`, the EC50 is more than 200 µM and the IC50 came out at 110 µM.

Regarding `Cc1c(O)c2ccccc2c2c1sc(NCCCN(CCO)CCO)[n+]2C`, the EC50 was more than 200 µM and the IC50 turned out to be 11.2 µM.

Take `Brc1ccccc1CCc1ncc[nH]1`: the EC50 was more than 575 µM and the IC50 was found to be 234 µM.

For the molecule `COc1ccc(/C=c2/sc3n(c2=O)NC2(CCC(C)CC2)NN=3)cc1` (stereo not drawn), the result was inactive.

As for `CN(CCC#N)c1ccc(/C=C2\SC(=S)NC2=O)cc1`, the EC50 is more than 200 µM and the half-maximal inhibitory concentration (IC50) was found to be 34.7 µM.

With `C=CC[C@H]1O[Si](C(C)(C)C)(C(C)(C)C)[C@H](C)[C@H]1C`, the EC50 was more than 200 µM and the concentration for half-maximal inhibition (IC50) was more than 200 µM.

For `CCc1cccc(C)c1NC(=O)C1=C(C)NC(C)=C(C(=O)Nc2c(C)cccc2CC)C1c1ccc([N+](=O)[O-])cc1`, the EC50 was more than 12.9 µM and the concentration for half-maximal inhibition (IC50) was more than 12.9 µM.

On to `Clc1cccc(-c2sc(-c3cccs3)cc2Cc2cccs2)c1`, for which the EC50 was more than 200 µM and the concentration for half-maximal inhibition (IC50) amounted to 141 µM.

Regarding `Cc1cc(C)c(C2CNCc3cc4c(cc32)CNCC4c2c(C)cc(C)cc2C)c(C)c1` (stereo not drawn), the EC50 is more than 20 µM and the IC50 is 2.57 µM.

Consider `O=C(Nc1ccc(Sc2ccc(N=Nc3c(O)c(S(=O)(=O)O)cc4cc(S(=O)(=O)O)ccc34)cc2)cc1)c1ccc(N=Nc2cc(S(=O)(=O)O)c3ccccc3c2O)cc1`, for which the outcome was inactive.

`C=C1CCCCCCCCCCC12SCCCS2`: the EC50 was more than 200 µM and the 50% inhibitory concentration (IC50) was more than 200 µM.

For `Oc1[nH]c2ccccc2c1N=NC(=S)N1CCCCCC1`, the EC50 was more than 200 µM and the IC50 worked out at 1.32 µM.

As for `BrC1CCCCCC(Br)C12OCCO2` (stereo not drawn), the EC50 was more than 57.5 µM and the concentration for half-maximal inhibition (IC50) is more than 57.5 µM.

As a reminder, the EC50 is the concentration giving half of the maximal effect. The term IC50 denotes the midpoint of a concentration-inhibition curve. Low readings indicate greater potency, high ones weaker potency.
